How the values were obtained:
[1] = Example 13: Compound 1 IV PK study in monkey; assay type: in vivo, male cynomolgus monkeys; conditions: male, cynomolgus, plasma, 0.25 mg/kg, read-out: Monkey t1/2 (converted)
Method: The LC-MS methodology and conditions used to analyse Compound 1 in plasma samples from the intra-venous injection PK studies (Example 13) are described in Tables 5 to 7. A 0.25 mg/mL solution of Compound 1 in 10% DMSO, 10% Solutol HS15 and 80% Saline was prepared as follows: • 1) A stock solution of Compound 1 in DMSO was prepared. • 2) An equal volume of the Compound 1 stock solution and Solutol HS15 were combined and mixed. • 3) The above solution was diluted with normal saline to reach the target concentration. The final formulation was a clear solution. Male non-naïve Cyno Monkeys with were used for the monkey PK study. The animals had free access to food and water. The prepared solution was administered via intravenous injection to each animal group (n=3) to achieve a 0.25 mg/kg dose. At each time point, approximately 0.5 mL whole blood was collected into K2EDTA tubes. Blood samples were put on to ice and centrifuged at 2000 g for 5 min to obtain plasma sample within 15 minutes. Plasma samples were stored at approximately −70° C. until analyzed by LC-MS.

[2] = Injection site observation in pritelivir PK studies (Examples 1-4); assay type: in vivo, rat, monkey, dog; conditions: SC pritelivir depot formulations, Examples 1-4, 3 species
Method: Male Sprague Dawley (SD) rats with ~300 g body weight (ages 6-8 weeks) were used for the pharmacokinetic study. The animals had free access to food and water. The pritelivir suspensions described above were administered via sub-cutaneous injection to each animal group (n=3) with a dosing volume of 3.33 mL/kg to achieve 33.33 mg/kg and 166.67 mg/kg doses.
Male SD rats with 230-250 g body weight, ages 6-8 weeks were used for the rat PK study. The animals had free access to food and water. The prepared suspension was administered via subcutaneous injection to each animal group (n=3) with a dosing volume of 3.33 mL/kg to achieve a 10 mg/kg dose.
(§1) Male non-naïve Cyno Monkeys with −5 kg body weight was used for the monkey PK study. The animals had free access to food and water. The prepared suspension was administered via subcutaneous injection to each animal group (n=3) with a dosing volume of 3.33 mL/kg to achieve a 10 mg/kg dose.
Male non-naïve beagles were used for the dog PK study. The animals had free access to food and water. The prepared suspension was administered via subcutaneous injection to each animal group (n=3) with a dosing volume of 2 mL/kg to achieve a 10 mg/kg dose.

[3] = Example 3: pritelivir aqueous suspension SC PK study in monkey; assay type: in vivo, male cynomolgus monkeys; conditions: aqueous suspension (dihydrate), 10 mg/kg
Method: The LC-MS methodology and conditions used to analyse pritelivir in plasma samples from the PK studies described in Examples 1 to 5 are provided in Table 1.
An aqueous suspension of crystalline pritelivir free base (dihydrate) in a 0.9% NaCl+0.5% polysorbate 80 vehicle at a concentration of 3.0 mg/mL was prepared as follows: • 1) Vehicle (0.9% w/w NaCl and 0.5% w/w polysorbate 80) was prepared by dissolving NaCl and polysorbate 80 in water. • 2) Appropriate amount of crystalline pritelivir free base (dihydrate) was weighed and added to the vehicle. • 3) Mixture was stirred for 15 minutes, then vortexed for 1 minute and then sonicated for 10 minutes. • 4) The final dosing formulation was a homogenous white cloudy suspension.
as §1
At each time point, approximately 0.5 mL whole blood was collected via the cephalic vein into K2EDTA tubes. Blood samples were put on to ice and centrifuged at 2000 g for 5 min to obtain plasma sample within 15 minutes. Plasma samples were stored at approximately −70° C. until analyzed by LC-MS.

recurrent genital HSV-2 = conditions: 28 days daily oral dosing; pritelivir 100 mg (after 400 mg loading dose), valacyclovir 500 mg; cited from earlier work
HSV-1 = conditions: Field et al. (2013); read-out: in-vitro EC50 against HSV-1; cited from earlier work

SMILES | half-life [1] [h] | adverse reactions at the injection sites [2] | prolonged exposure out to (length of the study) [3] | HSV shedding, % of genital swabs analysed (recurrent genital HSV-2) [%] | EC50 (HSV-1) [nM]
Cc1nc(N2CCCN(c3ccc(-c4cc(F)ccc4F)cc3)C2=O)sc1S(N)(=O)=O [Compound 1, 2-(3-(2′,5′-difluoro-[1,1′-biphenyl]-4-yl)-2-oxotetrahydropyrimidin-1(2H)-yl)-4-methylthiazole-5-sulfonamide] | 49.6 | – | – | – | –
Cc1nc(N(C)C(=O)Cc2ccc(-c3ccccn3)cc2)sc1S(N)(=O)=O [pritelivir, N-methyl-N-(4-methyl-5-sulfamoyl-1,3-thiazol-2-yl)-2-[4-(pyridin-2-yl)phenyl]acetamide] | – | no adverse reactions observed | at least 456 hours | 2.4 | 26

From patent US20260216057A1, “PHARMACEUTICAL COMPOSITIONS FOR HERPES VIRUS” (priority 2022, published 2026)
